Measured values as given in ChEMBL document CHEMBL3044779, “The action of herbicides on fatty acid biosynthesis and elongation in barley and cucumber” (Pest Manag Sci, 2010).
The source made the active and inactive calls. No cut-off for these calls is given here.

How the values were obtained:
Hordeum vulgare [1] = assay: Inhibition of fatty acid synthesis in Hordeum vulgare (barley) assessed as inhibition of [14C]malonate incoporation in total fatty acids at 30 uM measured after 3 hr by liquid scintillation counting; type: functional, organism-based
Cucumis sativus [2] = assay: Inhibition of fatty acid synthesis in Cucumis sativus (cucumber) using [14C]malonate assessed as inhibition of [14C]-labeled 18C fatty acid production at 30 uM after 3 hr by liquid scintillation counting; type: functional, organism-based
Hordeum vulgare [3] = assay: Inhibition of fatty acid synthesis in Hordeum vulgare (barley) using [14C]malonate assessed as inhibition of [14C]-labeled 22C fatty acid production at 30 uM after 3 hr by liquid scintillation counting; type: functional, organism-based
Hordeum vulgare [4] = assay: Inhibition of fatty acid synthesis in Hordeum vulgare (barley) using [14C]malonate assessed as inhibition of [14C]-labeled 24C fatty acid production at 30 uM after 3 hr by liquid scintillation counting; type: functional, organism-based
Hordeum vulgare [5] = assay: Inhibition of fatty acid synthesis in Hordeum vulgare (barley) using [14C]malonate assessed as inhibition of [14C]-labeled 18C fatty acid production at 30 uM after 3 hr by liquid scintillation counting; type: functional, organism-based
Hordeum vulgare [6] = assay: Inhibition of fatty acid synthesis in Hordeum vulgare (barley) using [14C]acetate assessed as [14C]-labeled 20C fatty acid level at 30 uM after 3 hr by liquid scintillation counting (reference value: 4.7 +/- 1.6%); type: functional; set-up: scale not given: the % may be the effect or the level left
Cucumis sativus [7] = assay: Inhibition of fatty acid synthesis in Cucumis sativus (cucumber) using [14C]malonate assessed as inhibition of [14C]-labeled 20C fatty acid production at 30 uM after 3 hr by liquid scintillation counting; type: functional, organism-based
Hordeum vulgare [8] = assay: Inhibition of fatty acid synthesis in Hordeum vulgare (barley) assessed as inhibition of [14C]acetate incoporation in total fatty acids at 30 uM measured as total disintegration per g of fresh weight after 3 hr by liquid scintillation counting (reference value: 5.7 +/- 0.5 10^6 dpm x 10'6 g'1 fresh wt); type: functional
Hordeum vulgare [9] = assay: Inhibition of fatty acid synthesis in Hordeum vulgare (barley) using [14C]acetate assessed as [14C]-labeled 16C fatty acid level at 30 uM after 3 hr by liquid scintillation counting (reference value: 29.5 +/- 1.3%); type: functional; set-up: scale not given: the % may be the effect or the level left
Hordeum vulgare [10] = assay: Inhibition of fatty acid synthesis in Hordeum vulgare (barley) using [14C]acetate assessed as [14C]-labeled 18C fatty acid level at 30 uM after 3 hr by liquid scintillation counting (reference value: 60.3 +/- 1.3%); type: functional; set-up: scale not given: the % may be the effect or the level left
Cucumis sativus [11] = assay: Inhibition of fatty acid synthesis in Cucumis sativus (cucumber) using [14C]acetate assessed as [14C]-labeled 24C fatty acid level at 30 uM after 3 hr by liquid scintillation counting (reference value: 6.5 +/- 1%); type: functional; set-up: scale not given: the % may be the effect or the level left
Cucumis sativus [12] = assay: Inhibition of fatty acid synthesis in Cucumis sativus (cucumber) using [14C]malonate assessed as inhibition of [14C]-labeled 22C fatty acid production at 30 uM after 3 hr by liquid scintillation counting; type: functional, organism-based
Cucumis sativus [13] = assay: Inhibition of fatty acid synthesis in Cucumis sativus (cucumber) using [14C]malonate assessed as inhibition of [14C]-labeled 24C fatty acid production at 30 uM after 3 hr by liquid scintillation counting; type: functional, organism-based
Hordeum vulgare [14] = assay: Inhibition of fatty acid synthesis in Hordeum vulgare (barley) using [14C]malonate assessed as inhibition of [14C]-labeled 20C fatty acid production at 30 uM after 3 hr by liquid scintillation counting; type: functional, organism-based
Cucumis sativus [15] = assay: Inhibition of fatty acid synthesis in Cucumis sativus (cucumber) using [14C]acetate assessed as [14C]-labeled 18C fatty acid level at 30 uM after 3 hr by liquid scintillation counting (reference value: 41.2 +/- 1.1%); type: functional; set-up: scale not given: the % may be the effect or the level left
Cucumis sativus [16] = assay: Inhibition of fatty acid synthesis in Cucumis sativus (cucumber) assessed as inhibition of [14C]malonate incoporation in total fatty acids at 30 uM measured after 3 hr by liquid scintillation counting; type: functional, organism-based
Hordeum vulgare [17] = assay: Inhibition of fatty acid synthesis in Hordeum vulgare (barley) using [14C]acetate assessed as [14C]-labeled 22C fatty acid level at 30 uM after 3 hr by liquid scintillation counting (reference value: 5.5 +/- 0.2%); type: functional; set-up: scale not given: the % may be the effect or the level left
Cucumis sativus [18] = assay: Inhibition of fatty acid synthesis in Cucumis sativus (cucumber) using [14C]acetate assessed as [14C]-labeled 22C fatty acid level at 30 uM after 3 hr by liquid scintillation counting (reference value: 17.9 +/- 2.5%); type: functional; set-up: scale not given: the % may be the effect or the level left
Cucumis sativus [19] = assay: Inhibition of fatty acid synthesis in Cucumis sativus (cucumber) using [14C]acetate assessed as [14C]-labeled 16C fatty acid level at 30 uM after 3 hr by liquid scintillation counting (reference value: 29.2 +/- 3.5%); type: functional; set-up: scale not given: the % may be the effect or the level left
Cucumis sativus [20] = assay: Inhibition of fatty acid synthesis in Cucumis sativus (cucumber) assessed as inhibition of [14C]acetate incoporation in total fatty acids at 30 uM measured as total disintegration per g of fresh weight after 3 hr by liquid scintillation counting (reference value: 6.4 +/- 1.2 dpm x 10^6 g'1 fresh wt); type: functional
Cucumis sativus [21] = assay: Inhibition of fatty acid synthesis in Cucumis sativus (cucumber) using [14C]malonate assessed as inhibition of [14C]-labeled 16C fatty acid production at 30 uM after 3 hr by liquid scintillation counting; type: functional, organism-based
Cucumis sativus [22] = assay: Inhibition of fatty acid synthesis in Cucumis sativus (cucumber) using [14C]acetate assessed as [14C]-labeled 20C fatty acid level at 30 uM after 3 hr by liquid scintillation counting (reference value: 5.1 +/- 0.7%); type: functional; set-up: scale not given: the % may be the effect or the level left
Hordeum vulgare [23] = assay: Inhibition of fatty acid synthesis in Hordeum vulgare (barley) using [14C]malonate assessed as inhibition of [14C]-labeled 16C fatty acid production at 30 uM after 3 hr by liquid scintillation counting; type: functional, organism-based

CCN(CC)C(=O)C(C)Oc1cccc2ccccc12 (stereo not drawn) [NAPROPAMIDE]
inhibition (Hordeum vulgare [1]): inactive
inhibition (Cucumis sativus [2]): inactive
inhibition (Hordeum vulgare [3]): inactive
inhibition (Hordeum vulgare [4]): inactive
inhibition (Hordeum vulgare [5]): inactive
Activity (Hordeum vulgare [6]): 7.6%
inhibition (Cucumis sativus [7]): inactive
Activity (Hordeum vulgare [8]): 5.2 ×10⁶ dpm
Activity (Hordeum vulgare [9]): 18.7%
Activity (Hordeum vulgare [10]): 66.9%
Activity (Cucumis sativus [11]): 5.9%
inhibition (Cucumis sativus [12]): inactive
inhibition (Cucumis sativus [13]): inactive
inhibition (Hordeum vulgare [14]): inactive
Activity (Cucumis sativus [15]): 43.1%
inhibition (Cucumis sativus [16]): inactive
Activity (Hordeum vulgare [17]): 6.9%
Activity (Cucumis sativus [18]): 19%
Activity (Cucumis sativus [19]): 26.5%
Activity (Cucumis sativus [20]): 6.2 ×10⁶ dpm
inhibition (Cucumis sativus [21]): inactive
Activity (Cucumis sativus [22]): 5.5%
inhibition (Hordeum vulgare [23]): inactive
